Assay results taken from patent publication US5428168A, “Lactol PAF antagonists” (British Biotech Pharmaceuticals Limited, priority 1990, dated 1995).

Columns and labels:
PAF receptor = target: T1, PAF receptor (Homo sapiens, UniProt P25105); test: Inhibition of [3H]-PAF receptor binding to human platelet plasma membrane (isotopic labelling and filtration); settings: human platelet membranes, 0.5 nM [3H]-PAF, 0° C., 1 hour
T1 construct: Platelet concentrates were obtained from a hospital blood bank; from tissue; host or cells: human platelets (plasma membrane fraction of lysed platelets from hospital blood bank concentrates)
Description: Compounds of general formula I inhibit PAF-induced functions in both the cellular and tissue levels by changing the PAF binding to its specific receptor site. The ability of compounds of general formula I to inhibit the binding of PAF to its specific receptor binding site on human platelet plasma membranes was measured according to the pharmacological example. […] Platelet concentrates were obtained from a hospital blood bank. These platelet concentrates (500-2500 ml.) were centrifuged at 800 rpm for 10 minutes in a SORVALL RC3B centrifuge to remove the red blood cells present. (The word SORVALL is a trade mark.) The supernatant was subsequently centrifuged at 3,000 rpm in a SORVALL RC3B centrifuge to pellet the platelets present. The platelet rich pellets were resuspended in a minimum volume of buffer (150 mM NaCl, 10 mM Tris, 2 mM EDTA, pH 7.5) and layered onto Ficoll-Paque gradients, 9 ml platelet concentrate to 2 ml Ficoll, and centrifuged at 1,900 rpm for 15 minutes in a SORVALL RT6000 centrifuge. This step removes the residual red blood cells and other nonspecific material such as lymphocytes from the preparation. The platelets which form a band between the plasma and the Ficoll were removed, resuspended in the above buffer and centrifuged at 3,000 rpm for 10 minutes in a SORVALL RT6000 centrifuge. The pelleted platelets were resuspended in buffer (10 mM Tris, 5mM MgCl2, 2 mM EDTA, pH 7.0), snap freezed in liquid N2 and allowed to thaw slowly at room temperature in order to lyse the platelets. The latter step was repeated at least 3 times to ensure proper lysis. The lysed platelets were centrifuged at 3,000 rpm for 10 minutes in a SORVALL RT6000 centrifuge and resuspended in buffer. The latter step was repeated twice in order to remove any cytoplasmic proteins which may hydrolyse the […]. The prepared platelet membranes may be stored at -70° C. After thawing the prepared membranes were centrifuged in a SORVALL RT6000 at 3,000 rpm for 10 minutes and resuspended in assay buffer. The assay was conducted by preparing a series of Tris-buffered solutions of the selected antagonist of predetermined concentrations. […] Incubation was initiated by the addition of 100 μg of the isolated membrane fraction to each of the above solutions at 0° C. […] (The word WHATMAN is a trade mark.) The residue in each case was rapidly washed 4 times with 5 ml cold (4° C.) Tris-buffer solution. […] % Inhibition=[(TB-TBA)/SB]x100 where the specific binding SB=TB-NSB […]

[1] = tested on: PAF-induced hypotension in the rat; test: Reversal of PAF-induced hypotension in anaesthetised rats; type: in vivo, rat (male Sprague-Dawley); settings: for inhibition of PAF-induced hypotension: @ 1 mg/kg i.v.; for ED50: iv, i.v. bolus, PAF 100 ng/kg/min i.v., straight line interpolation, read-out: ED50 (dose to cause 50% reversal of the hypotensive PAF response)
Description: Male Sprague-Dawley rats (300-400 g) were anaesthetised with a mixture of sodium pentobarbitone, 22.5 mg·kg^-1 and thiopental 62.5 mg·kg^-1. Through a midline incision in the neck, the trachea was cannulated and the animals breathed spontaneously. A carotid artery was cannulated for the measurement of blood pressure and this signal was used to trigger a rate meter to measure heart rate. Both jugular veins were cannulated: one for the infusion of PAF and the other for the bolus administration of test compounds.
PAF, 100 ng·kg^-1 .min^-1 was infused i.v. until a sustained fall in mean blood pressure of 50 mmHg was achieved. […] The peak of this reversal was measured and the dose to cause a 50% reversal of the hypotensive PAF response (ED50) calculated by straight line interpolation and the results are presented in Table 2.

[2] = tested on: PAF-induced bronchoconstriction in the guinea pig; test: Reversal of PAF-induced bronchoconstriction in anaesthetised guinea-pigs (modified Konzett-Rossler); type: in vivo, guinea-pig (male Dunkin-Hartley); settings: Cavia porcellus, iv, PAF 40 ng/kg/min i.v., read-out: ED50 (dose resulting in 50% reversal of PAF-induced bronchoconstriction)
Description: The inhibition of PAF induced bronchoconstriction was measured in anaesthetised artificially ventilated guinea-pigs (450-500 g) using a modified version of the Konzett-Rossler technique (Konzett M and Rossler R, Naunym-Schmiedeb. Arch. Exp. Pathol. Pharmakol., 1940, 197, 71). Male Dunkin-Hartley guinea-pigs were anaesthetised with urethane, 1.6 g·kg^-1. Through a midline neck incision, the trachea was cannulated and the animal ventilated with a constant tidal volume set between 5 and 15 ml, to give a tracheal inflation pressure of 15 mmHg at a rate of 40 per minute. A carotid artery was cannulated for the measurement of blood pressure and heart rate and both jugular veins were cannulated, one for the infusion of PAF and the other for the administration of test compounds. PAF, 40 ng·kg^-1 ·min^-1, was infused i.v. to produced a 100% increase in tracheal inflation pressure, and bronchoconstrictor effects were determined.

T1 sequence (P25105 whole entry): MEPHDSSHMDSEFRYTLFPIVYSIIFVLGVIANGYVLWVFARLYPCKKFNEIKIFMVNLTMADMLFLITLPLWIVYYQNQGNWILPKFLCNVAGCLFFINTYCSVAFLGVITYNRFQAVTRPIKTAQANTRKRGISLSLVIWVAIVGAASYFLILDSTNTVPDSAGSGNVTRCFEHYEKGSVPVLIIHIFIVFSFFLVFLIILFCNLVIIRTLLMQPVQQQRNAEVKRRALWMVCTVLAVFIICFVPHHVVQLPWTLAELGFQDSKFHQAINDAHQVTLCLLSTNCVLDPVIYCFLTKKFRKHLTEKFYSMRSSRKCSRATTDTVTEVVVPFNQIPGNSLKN

Row | IC50 (PAF receptor) [nM] | SMILES | inhibition of PAF-induced hypotension [1] [%] | ED50 [1] [µg/kg] | ED50 [2] [µg/kg]
1 | 3000 | COc1ccc([C@H]2CC[C@H](OCCCc3ccc[n+](C)c3)O2)cc1OC (relative stereo) [Comparative Example A, trans-O-(3-(3-N-methylpyridyl)propyl)-5-(3,4-dimethoxyphenyl)-gamma-butyrolactol ether iodide, reference compound] | 31 | > 1000 | 
2 | 1000 | COc1ccc([C@H]2CC[C@@H](OCCCc3ccc[n+](C)c3)O2)cc1OC (relative stereo) [Comparative Example B, cis-O-(3-(3-N-methylpyridyl)propyl)-5-(3,4-dimethoxyphenyl)-gamma-butyrolactol ether iodide, reference compound] | 10 | > 1000 | 
3 | 4000 | COc1ccc([C@H]2CC[C@H](OCCCc3cccnc3)O2)cc1OC (relative stereo) [Example 1A, trans-O-(3-(3-pyridyl)propyl)-5-(3,4-dimethoxyphenyl)-gamma-butyrolactol ether] |  | 27 | 
4 | 12000 | COc1ccc([C@H]2CC[C@H](OCCCCCc3cccnc3)O2)cc1OC (relative stereo) [Example 5A, O-(5-(3-Pyridyl)pentyl)-5-(3,4-dimethoxyphenyl)-gamma-butyrolactol ether] |  |  | 
5 | 1500 | COc1ccc([C@H]2CC[C@@H](OCCCCCc3cccnc3)O2)cc1OC (relative stereo) [Example 5B, O-(5-(3-Pyridyl)pentyl)-5-(3,4-dimethoxyphenyl)-gamma-butyrolactol ether] |  |  | 
6 | 3000 | COc1ccc([C@H]2CC[C@H](OCCCCC#Cc3cccnc3)O2)cc1OC (relative stereo) [Example 6A, O-(6-(3-Pyridyl)hex-5-ynyl)-5-(3,4-dimethoxyphenyl)-gamma-butyrolactol ether] |  |  | 
7 | 12000 | COc1ccc([C@H]2CC[C@H](OCCCC/C=C\c3cccnc3)O2)cc1OC (relative stereo) [Example 7A, Z-O-(6-(3-Pyridyl)hex-5-enyl)-5-(3,4-dimethoxyphenyl)-gamma-butyrolactol ether] |  |  | 
8 | 1000 | COc1ccc([C@H]2CC[C@H](OC/C=C/c3cccnc3)O2)cc1OC (relative stereo) [Example 10A, E-O-(3-(3-Pyridyl)prop-2-enyl)-5-(3,4-dimethoxyphenyl)-gamma-butyrolactol ether] |  |  | 
9 | 150 | COc1ccc([C@H]2CC[C@@H](OC/C=C/c3cccnc3)O2)cc1OC (relative stereo) [Example 10B, E-O-(3-(3-Pyridyl)prop-2-enyl)-5-(3,4-dimethoxyphenyl)-gamma-butyrolactol ether] |  |  | 
10 | 25 | COc1ccc([C@H]2CC[C@@H](OCCCn3c(C)nc4cnccc43)O2)cc1OC (relative stereo) [Example 30A, O-(3-(1H-2-Methylimidazo[4,5-c]pyridyl)propyl)-5-(3,4-dimethoxyphenyl)-gamma-butyrolactol ether] |  |  | 
11 | 4000 | COc1ccc(C2CCC(OCCC#Cc3cccnc3)O2)cc1OC (stereo not drawn) [Example 2, O-(4-(3-Pyridyl)but-3-ynyl)-5-(3,4-dimethoxyphenyl)-gamma-butyrolactol ether] |  |  | 
12 | 6000 | COc1ccc(C2CCC(OCCCCc3cccnc3)O2)cc1OC (stereo not drawn) [Example 3, O-(4-(3-Pyridyl)butyl)-5-(3,4-dimethoxyphenyl)-gamma-butyrolactol ether] |  |  | 
13 | 5000 | COc1ccc(C2CCC(OCCCC#Cc3cccnc3)O2)cc1OC (stereo not drawn) [Example 4, O-(5-(3-Pyridyl)pent-4-ynyl)-5-(3,4-dimethoxyphenyl)-gamma-butyrolactol ether] |  |  | 
14 | 2000 | COc1ccc(C2CCC(OCCCC/C=C\c3cccnc3)O2)cc1OC (stereo not drawn) [Example 7B, Z-O-(6-(3-Pyridyl)hex-5-enyl)-5-(3,4-dimethoxyphenyl)-gamma-butyrolactol ether] |  |  | 
15 | 3000 | COc1ccc(C2CCC(OC(C)CCc3cccnc3)O2)cc1OC (stereo not drawn) [Example 12, O-(1-Methyl-3-(3-pyridyl)propyl)-5-(3,4-dimethoxyphenyl)-gamma-butyrolactolether] |  |  | 
16 | 900 | COc1ccc(C2CCC(OCc3ccc(-n4c(C)nc5ccccc54)cc3)O2)cc1OC (stereo not drawn) [Example 23, O-((4-(1H-2-Methylbenzimidazyl)phenyl)methyl)-5-(3,4-dimethoxyphenyl)-gamma-butyrolactol ether] |  |  | 
17 | 2000 | COc1ccc(C2CCC(OCc3ccc(Cn4c(C)nc5ccccc54)cc3)O2)cc1OC (stereo not drawn) [Example 24, O-((4-(1H-2-Methylbenzimidazylmethyl)phenyl)methyl)-5-(3,4-dimethoxyphenyl)-gamma-butyrolactol ether] |  |  | 
18 | 10000 | COc1ccc(C2CCC(OCc3csc(-c4cccnc4)n3)O2)cc1OC (stereo not drawn) [Example 27, O-((2-(3-Pyridyl)-4-thiazolyl)methyl)-5-(3,4-dimethoxyphenyl)-gamma-butyrolactol ether] |  | 120 | 
19 | 250 | COc1ccc(C2CCC(OCCCn3c(C)nnc3C)O2)cc1OC (stereo not drawn) [Example 29, O-(3-(3,5-Dimethyl-1,2,4-triazol-4-yl)propyl)-5-(3,4-dimethoxyphenyl)-gamma-butyrolactol ether] |  |  | 
20 | 15 | COc1ccc(C2CCC(OCCCn3c(C)nc4cnccc43)O2)cc1OC (stereo not drawn) [Example 30, O-(3-(1H-2-Methylimidazo[4,5-c]pyridyl)propyl)-5-(3,4-dimethoxyphenyl)-gamma-butyrolactol ether] |  | 1 | 0.4
21 |  | COc1ccc(C2CCC(OCCCCn3c(C)nc4cnccc43)O2)cc1OC (stereo not drawn) [Example 31, O-(4-(1H-2-Methylimidazo[4,5-c]pyridyl)butyl)-5-(3,4-dimethoxyphenyl)-gamma-butyrolactol ether] |  | 3 | 
22 | 7 | Cc1nc2cnccc2n1CCCOC1CCC(c2ccc(F)cc2)O1 (stereo not drawn) [Example 33, O-(3-(1H-2-Methylimidazo[4,5-c]pyridyl)propyl)-5-(4-fluorophenyl)-gamma-butyrolactol ether] |  | 1 | 
23 | 10 | Cc1nc2cnccc2n1CCCOC1CCC(c2ccc(Br)cc2)O1 (stereo not drawn) [Example 34, O-(3-(1H-2-Methylimidazo[4,5-c]pyridyl)propyl)-5-(4-bromophenyl)-gamma-butyrolactol ether] |  |  | 
24 | 5 | Cc1nc2cnccc2n1CCCOC1CCC(c2ccc(Cl)c(Cl)c2)O1 (stereo not drawn) [Example 35, O-(3-(1H-2-Methylimidazo[4,5-c]pyridyl)propyl)-5-(3,4-dichlorophenyl)-gamma-butyrolactol ether] |  | 2 | 
25 | 3 | COc1ccc(C2CCC(OCCCn3c(C)nc4cnccc43)O2)cc1Cl (stereo not drawn) [Example 36, O-(3-(1H-2-Methylimidazo[4,5-c]pyridyl)propyl)-5-(3-chloro-4-methoxyphenyl)-gamma-butyrolactol ether] |  | 2 | 
